Data published in patent US20240076284A1, “NEW COMPOUNDS AND METHODS” (BENEVOLENTAI BIO LIMITED, priority 2020, published 2024).

How the values were obtained:
[1] = Human microsomal stability; assay type: in vitro ADME; details: human microsomes, first value of cell; NADPH, 37° C., up to 40 min
Experimental: (§1) This assay measures the metabolic stability of a given compound and predicts intrinsic liver clearance for various species. A quench plate is initially prepared which contains 400 μL MeCN and 25 ng/mL of internal standard. An aliquot of microsomes is defrosted and subsequently diluted with buffer. A solution of NADPH is made up fresh just before initialising the assay. 445 μL of microsome solution is added to the desired compound (5 μL in 10 μM DMSO) and the resulting solution mixed. The reaction is initiated by the addition of 50 μL of NADPH, a T0 sample is removed before the addition and quenched. The sample plate is kept at a constant 37° C. during the incubation. At pre-determined timepoints (2.5, 5, 10, 20 and 40 min) the incubation is mixed and 22.5 μL samples are transferred to quench plates. After completion of the time course, the quench plates are sealed and shaken for a minimum of 5 min, before centrifugation at 4000 rpm for 5 min. The supernatant is then subsequently transferred to a fresh plate and diluted 1:3 with MeOH/H2O. The plates are then heat sealed and analysed by a Water Acquity UPLC and a Waters TQ-S mass spectrometer. Waters MassLynx software is used for analysis using an MRM transition that has been previously generated from prior optimisation. After acquiring the data on the system the chromatograms are processed and checked using TargetLynx XS software and the raw data output is copied into a microsomal stability workbook. The workbook automatically populates and derives the CLint, t1/2 and scales the CLint values to generate Eh and predicted CL values. The analyst has the final workbook quality checked before the experiment is signed off.

[2] = target: T1, Ba/F3 cells expressing BCR-ABL (Homo sapiens, UniProt P00519); experiment: Ba/F3 CellTiter-Glo Assay; assay type: cell-based; details: 48 h incubation, CellTiter-Glo luminescence
T1 construct: BCR (fusion partner, N-terminal portion of BCR); host or cells: Ba/F3 (murine pro-B cells); the other entry of the earlier key: BCR (P11274, Breakpoint cluster region protein)
T1 sequence (P00519 229-512 limits assumed): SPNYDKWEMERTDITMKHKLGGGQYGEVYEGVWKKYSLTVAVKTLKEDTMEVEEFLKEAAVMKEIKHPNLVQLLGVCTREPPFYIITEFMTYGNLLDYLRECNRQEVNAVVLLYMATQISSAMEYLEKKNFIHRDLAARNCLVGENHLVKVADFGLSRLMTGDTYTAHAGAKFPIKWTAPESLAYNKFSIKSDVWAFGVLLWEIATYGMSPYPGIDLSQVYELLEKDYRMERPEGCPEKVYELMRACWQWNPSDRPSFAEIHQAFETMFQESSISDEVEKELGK
Experimental: The CellTiter-Glo luminescent cell viability assay is a homogeneous method of determining the number of viable cells in culture based on quantification of the ATP present. Briefly, IL-3 dependent Ba/F3 cells are modified to express BCR-ABL. Activity of the transformed kinase overrides IL-3 dependency for cellular proliferation and survival. […] In this assay Ba/F3 cells expressing BCR-ABL (Advanced Cellular Dynamics) or parental Ba/F3 (control) cells were prepared at 5×10^4/mL in RPMI 1640 containing 10% FBS, 1×Glutamax and 750 ng/mL puromycin. Test compounds were dispensed into 384 well plates using the Tecan D300e at a top final assay concentration of 10 μM with dosing normalised to 0.1% DMSO in […]. 50 μL cells were added to each well of the prepared 384 well plates and the plates spun at 1000 rpm for 1 min prior to incubation at 37° C., 5% CO2 for 48 h. After 48 h 15 μL CellTiter-Glo reagent was added to each well in the plate. Following a 60 min incubation at rt luminescence was read on the Pherastar FS reader.

BCRP = target: T2, BCRP (Homo sapiens, UniProt Q9UNQ0); experiment: BCRP-MDCK effective efflux ratio; assay type: in vitro ADME; details: BCRP-MDCK relative to wild-type MDCK, 1 μM, 60 minutes, pH 7.4
T2 construct: expressed in transfected cells; host or cells: MDCK (canine kidney) cells
T2 sequence (Q9UNQ0 1-655): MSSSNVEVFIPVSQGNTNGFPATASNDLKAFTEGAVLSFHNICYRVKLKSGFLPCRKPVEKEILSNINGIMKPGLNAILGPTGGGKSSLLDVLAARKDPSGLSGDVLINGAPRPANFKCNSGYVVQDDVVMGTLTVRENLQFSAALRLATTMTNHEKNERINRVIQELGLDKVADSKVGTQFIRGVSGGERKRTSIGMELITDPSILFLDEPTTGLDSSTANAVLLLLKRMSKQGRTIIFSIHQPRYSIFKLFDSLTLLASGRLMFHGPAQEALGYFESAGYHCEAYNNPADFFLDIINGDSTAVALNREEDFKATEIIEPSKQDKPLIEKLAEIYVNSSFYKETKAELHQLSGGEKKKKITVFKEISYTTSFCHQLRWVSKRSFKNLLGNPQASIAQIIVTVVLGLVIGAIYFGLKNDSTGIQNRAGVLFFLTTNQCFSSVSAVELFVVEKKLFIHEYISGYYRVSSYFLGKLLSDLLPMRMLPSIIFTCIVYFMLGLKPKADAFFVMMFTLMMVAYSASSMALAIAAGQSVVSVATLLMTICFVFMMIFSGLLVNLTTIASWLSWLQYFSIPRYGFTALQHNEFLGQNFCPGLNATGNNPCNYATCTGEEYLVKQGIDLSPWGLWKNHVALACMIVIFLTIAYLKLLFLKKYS
Experimental: (§2) Wild-type MDCK, MDR1-MDCK and BCRP-MDCK cells were seeded into 24 well Transwell plates and cultured for 3 days to form monolayers. Test compound were prepared at 1 μM in Hanks' Balanced Salt Solution containing 25 mM HEPES and loaded into the donor compartments of Transwell plates bearing the cell monolayers (pH 7.4 for both donor and receiver compartments). Lucifer Yellow was added to the apical buffer in all wells to assess integrity of the cell monolayer. Duplicate wells were prepared and incubated at 37° C. in a CO2 incubator. Samples were removed at time zero and 60 minutes and test compound analysed by LC-MS/MS. Concentrations of Lucifer Yellow in the samples was measured using a fluorescence plate reader. The apparent permeability (Papp) values of test compound was determined for both the apical to basal (A>B) and basal to apical (B>A) permeation and the efflux ratio (B>A: A>B) determined in each cell line. The effective efflux ratio was determined from the ratio of either MDR1-MDCK cells or BCRP-MDCK cells relative to the ratio observed in wild-type cells. A higher value represent a better substrate for the efflux mechanism, which is less preferable.

MDR1 = target: T3, MDR1 (Homo sapiens, UniProt P08183); experiment: MDR1-MDCK effective efflux ratio; assay type: in vitro ADME; details: MDR1-MDCK relative to wild-type MDCK, 1 μM, 60 minutes, pH 7.4
T3 construct: expressed in transfected cells; host or cells: MDCK (canine kidney) cells
Experimental: as §2

Rat microsomal stability = assay type: in vitro ADME; details: rat microsomes, second value of cell; NADPH, 37° C., up to 40 min
Experimental: as §1

T3 sequence (P08183 whole entry, species assumed): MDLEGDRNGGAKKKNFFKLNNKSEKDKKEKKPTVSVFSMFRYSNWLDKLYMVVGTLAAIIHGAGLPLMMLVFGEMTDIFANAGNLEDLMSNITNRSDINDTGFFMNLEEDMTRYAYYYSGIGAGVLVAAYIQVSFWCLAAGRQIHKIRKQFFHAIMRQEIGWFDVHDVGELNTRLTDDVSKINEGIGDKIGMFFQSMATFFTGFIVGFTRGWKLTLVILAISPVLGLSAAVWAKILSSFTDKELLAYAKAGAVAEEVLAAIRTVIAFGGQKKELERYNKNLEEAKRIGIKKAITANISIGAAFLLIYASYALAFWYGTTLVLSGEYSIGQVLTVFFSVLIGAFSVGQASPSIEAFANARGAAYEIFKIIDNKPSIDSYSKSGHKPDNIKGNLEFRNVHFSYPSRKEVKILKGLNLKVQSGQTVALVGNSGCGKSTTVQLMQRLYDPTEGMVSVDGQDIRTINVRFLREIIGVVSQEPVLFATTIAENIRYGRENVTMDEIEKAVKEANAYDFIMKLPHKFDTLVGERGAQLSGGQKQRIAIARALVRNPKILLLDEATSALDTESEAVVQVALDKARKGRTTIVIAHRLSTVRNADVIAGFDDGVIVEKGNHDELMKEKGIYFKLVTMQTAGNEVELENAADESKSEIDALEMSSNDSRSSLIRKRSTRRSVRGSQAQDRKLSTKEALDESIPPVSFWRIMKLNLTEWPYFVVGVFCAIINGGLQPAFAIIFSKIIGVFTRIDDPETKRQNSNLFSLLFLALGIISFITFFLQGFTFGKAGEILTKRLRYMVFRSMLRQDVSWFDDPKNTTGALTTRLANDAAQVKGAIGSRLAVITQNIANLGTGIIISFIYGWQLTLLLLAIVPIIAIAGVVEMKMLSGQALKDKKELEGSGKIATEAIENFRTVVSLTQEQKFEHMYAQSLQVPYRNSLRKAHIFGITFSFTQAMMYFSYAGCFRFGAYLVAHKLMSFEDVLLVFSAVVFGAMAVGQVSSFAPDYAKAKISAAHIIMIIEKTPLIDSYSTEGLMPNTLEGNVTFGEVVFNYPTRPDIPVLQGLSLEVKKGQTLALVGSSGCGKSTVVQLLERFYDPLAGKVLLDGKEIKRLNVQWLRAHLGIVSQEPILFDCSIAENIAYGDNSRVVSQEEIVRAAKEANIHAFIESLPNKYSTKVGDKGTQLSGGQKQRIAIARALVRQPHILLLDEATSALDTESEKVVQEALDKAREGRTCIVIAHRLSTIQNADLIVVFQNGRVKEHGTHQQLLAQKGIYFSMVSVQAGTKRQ

SMILES	Microsomal stability (human/rat) Eh [1]	IC50 [2] [nM]	MDCK BCRP EER (BCRP)	MDCK MDR1 EER (MDR1)	Microsomal stability (human/rat) Eh (Rat microsomal stability)
Cc1ccc(C(=O)Nc2cc(C(F)(F)F)ccn2)cc1-n1cc(-c2cncnc2)cn1 [Example 3, 4-Methyl-3-(4-pyrimidin-5-ylpyrazol-1-yl)-N-[4-(trifluoromethyl)-2-pyridyl]benzamide]	0.56	25	1.0	1.0	0.44
Cc1ccc(C(=O)Nc2cc(C(F)(F)F)cnn2)cc1-n1cc(-c2cccnc2)cn1 [Example 2, 4-Methyl-3-[4-(3-pyridyl)pyrazol-1-yl]-N-[5-(trifluoromethyl)pyridazin-3-yl]benzamide]	0.56	40	1.5	2.9	0.67
